Earlier results, collected in patent US20080095853A1, “Modified Release For Proton Pump Inhibitors” (priority 2004, published 2008).

System: gastric acid
Conditions: splitting a 40 mg dose into 20 mg bid

SMILES: COc1ccc2nc([S@@+]([O-])Cc3ncc(C)c(OC)c3C)[nH]c2c1 [esomeprazole]
- nocturnal gastric acid suppression: significantly improved
